Reference: patent EP1134289A1, “METHOD FOR SCREENING CD14 AGONIST OR ANTAGONIST” (Takeda Chemical Industries, Ltd., priority 1998, dated 2000)

Tested on: CD14 expression
Experiment: Induction of CD14 expression in THP-1 cells (FITC-labeled anti-CD14 antibody, flow cytometry)
Format: cell-based, human
Details: VD3 about 100 nM, 3 days, 10,000 cells, 40 where no VD3 was added
Method: Human monocytic THP-1 cells (purchased from Dainippon Pharmaceutical Co., Ltd.) were used as cells. As a culture medium, RPMI medium 1640 with L-glutamine (RPMI; GIBCO Co.), to which inactivated fetal calf serum (GIBCO Co.) at a concentration of 10% (v/v) and penicillin-streptomycin involving penicillin G sodium and streptomycin sulfate at a concentration of 100 U/ml and 100 µg/ml respectively, were added. For induction of CD14 expression, the cells were suspended in the medium at a content of about 3 × 10^5 cells/ml, to which 1,25-dihydroxyvitamin D3 (VD3; Roussel-UCLAF S.A.) was added at a final concentration of about 100 nM. The cells were incubated in the presence of 5% CO2 in a CO2 incubator MODEL 6200-03 (National Appliance Company) at 37°C for 3 days. The cultured cells were suspended into PBS at 10^6 cells/ml, to which FITC-labeled anti-human CD14 monoclonal antibody clone. UCHM1 (Ancell Co.) was added at a concentration of 1.6 µg/ml. The mixture was incubated at 4°C for 1 hour. The cells were washed 3 times with PBS by centrifugation (1,000 rpm, 3 minutes, 20°C), suspended into 1,000 µl of PBS, and filtered through a tube with a filter (FALCON2235 (Becton Dickinson Co.)). For the resulting cell suspension, the amount of the FITC-labeled anti-CD14 antibody bound to 10,000 cells was determined using a flow cytometer Cyto ACE-300 (JASCO Coporation). […]

C=C1/C(=C\C=C2/CCC[C@]3(C)[C@@H]([C@H](C)CCCC(C)(C)O)CC[C@@H]23)C[C@@H](O)C[C@@H]1O [VD3, 1,25-dihydroxyvitamin D3]
mean fluorescence intensity (MFI) of bound FITC-labeled anti-CD14 antibody: 114.9
